Test results reported in patent publication US20260102359A1, “COMBINATION TREATMENT OF DERMAL AND TRANSDERMAL FIBROTIC DISEASES, DISORDERS AND ASSOCIATED PAIN AND INFLAMMATION” (ERESINA, LLC, priority 2022, published 2026).
Counter-ions that a name gives are not always drawn. Where a SMILES comes first, the peptide text is derived from it.

test system: hDMFa myofibroblast cells

Row | SMILES | Compound Myofibroblast Cytotoxicity Activity
1 | CC(=O)OCC(CCn1cnc2cnc(N)nc21)COC(C)=O [Cmpd 447, Famciclovir] | +++
2 | CCOC(=O)C1=C(C)NC(C)=C(C(=O)OC)C1c1cccc(Cl)c1Cl (centres unmarked) [Cmpd 449, Felodipine] | +++
3 | CC(NCCC(c1ccccc1)c1ccccc1)c1ccccc1 (centres unmarked) [Cmpd 450, Fendiline (hydrochloride)] | +++
4 | Clc1ccc(C(Cn2ccnc2)OCc2ccc(Sc3ccccc3)cc2)c(Cl)c1 (centres unmarked) [Cmpd 452, Fenticonazole Nitrate] | ++++
5 | COc1cc(/C=C/C(=O)O)ccc1O [Cmpd 453, Ferulic Acid] | ++
6 | CCc1c(Cl)c(O)c(Cl)c(O)c1C(=O)O[C@H]1[C@H](O)[C@H](OC)[C@H](OC/C2=C\C=C\C[C@H](O)/C(C)=C/[C@H](CC)[C@@H](O[C@@H]3OC(C)(C)[C@@H](OC(=O)C(C)C)[C@H](O)[C@@H]3O)/C(C)=C/C(C)=C/C[C@@H]([C@@H](C)O)OC2=O)O[C@@H]1C [Cmpd 454, Fidaxomicin] | +++++
7 | CCC(=O)c1c(O)cc(O)cc1O [Cmpd 458, Flopropione] | ++
8 | O=c1[nH]c(=O)n([C@H]2C[C@H](O)[C@@H](CO)O2)cc1F [Cmpd 459, Floxuridine] | +++
9 | Cl.Cl.Fc1ccc(C(c2ccc(F)cc2)N2CCN(C/C=C/c3ccccc3)CC2)cc1 [Cmpd 460, Flunarizine 2HCl] | ++
10 | CC1(C)O[C@@H]2C[C@H]3[C@@H]4C[C@H](F)C5=CC(=O)C=C[C@]5(C)[C@H]4[C@@H](O)C[C@]3(C)[C@]2(C(=O)CO)O1 [Cmpd 461, Flunisolide] | ++
11 | O=C1OC2(c3ccc(O)cc3Oc3cc(O)ccc32)c2ccccc21 [Cmpd 462, Fluorescein] | ++
12 | CC(=O)[C@@]1(O)CC[C@H]2[C@@H]3C[C@H](C)C4=CC(=O)C=C[C@]4(C)[C@@]3(F)[C@@H](O)C[C@@]21C [Cmpd 463, Fluorometholone] | ++
13 | CNCCC(Oc1ccc(C(F)(F)F)cc1)c1ccccc1 (centres unmarked) [Cmpd 464, Fluoxetine HCl] | +++
14 | Cl.Cl.OCCN1CCN(CCCN2c3ccccc3Sc3ccc(C(F)(F)F)cc32)CC1 [Cmpd 465, Fluphenazine dihydrochloride] | +++++
15 | COCCCC/C(=N\OCCN)c1ccc(C(F)(F)F)cc1 [Cmpd 466, Fluvoxamine maleate] | ++
16 | Nc1nc2ncc(CNc3ccc(C(=O)N[C@@H](CCC(=O)O)C(=O)O)cc3)nc2c(=O)[nH]1 [Cmpd 467, Folic acid] | ++
17 | Nc1nc(=O)c2c([nH]1)NCC(CNc1ccc(C(=O)N[C@@H](CCC(=O)[O-])C(=O)[O-])cc1)N2C=O.[Ca+2] (some centres unmarked) [Cmpd 468, Folinic Acid (calcium salt)] | +++
18 | CNC(=O)c1c(C)oc2cc(Oc3ncnc4cc(OC)c(OC)cc34)ccc12 [Cmpd 472, Fruquintinib(HMPL-013)] | ++++
19 | N[C@@H](CSCCCO)C(=O)O [Cmpd 473, Fudosteine] | ++++
20 | CC(=O)O[C@H]1C[C@@]2(C)[C@@H](C[C@@H](O)[C@H]3[C@@]4(C)CC[C@@H](O)[C@@H](C)[C@@H]4CC[C@@]32C)/C1=C(\CCC=C(C)C)C(=O)O [Cmpd 477, Fusidic Acid (sodium salt)] | +++
21 | CC(C)=C1C/C=C(\C)CC/C=C(\C)CC1=O [Cmpd 482, Germacrone] | +++++

Row | SMILES | Compound Myofibroblast Cytotoxicity Activity
22 | COc1ccc2c(c1)C(=O)N(CCc1ccc(S(=O)(=O)NC(=O)NC3CCCCC3)cc1)C(=O)C2(C)C [Cmpd 485, Gliquidone] | ++
23 | NCC(=O)O [Cmpd 487, Glycine (GLY)] | ++++
24 | C[C@H](CCC(=O)NCC(=O)O)[C@H]1CC[C@H]2[C@@H]3[C@H](O)C[C@@H]4C[C@H](O)CC[C@]4(C)[C@H]3C[C@H](O)[C@]12C [Cmpd 488, Glycocholic Acid] | ++++
25 | NCC(=O)NCC(=O)O [Cmpd 489, Glycylglycine] (H-Gly-Gly-OH) | ++
26 | C[C@]1(OC(=O)/C=C/c2ccccc2)C[C@@H](O)[C@]2(O)C=CO[C@@H](O[C@@H]3O[C@H](CO)[C@@H](O)[C@H](O)[C@H]3O)[C@@H]21 [Cmpd 499, Harpagoside] | ++
27 | COc1ccc([C@@H]2CC(=O)c3c(O)cc(O)cc3O2)cc1O [Cmpd 503, Hesperitin] | ++
28 | Oc1c(Cl)cc(Cl)c(Cl)c1Cc1c(O)c(Cl)cc(Cl)c1Cl [Cmpd 504, Hexachlorophene] | +++++
29 | C[Si]1(C)O[Si](C)(C)O[Si](C)(C)O1 [Cmpd 505, Hexamethylcyclotrisiloxane] | +
30 | CC[C@H]1CN2CC[C@H]1C[C@@H]2[C@@H](O)c1ccnc2ccc(OC)cc12 [Cmpd 508, Hydroquinidine] | ++
31 | Oc1ccc(O)cc1 [Cmpd 509, Hydroquinone] | ++
32 | CC(=O)[C@]1(O)Cc2c(O)c3c(c(O)c2[C@@H](O[C@H]2C[C@H](N)[C@H](O)[C@H](C)O2)C1)C(=O)c1ccccc1C3=O [Cmpd 515, Idarubicin HCl] | +++++
33 | O=P1(NCCCl)OCCCN1CCCl (centres unmarked) [Cmpd 518, Ifosfamide] | +++
34 | CN(C)CCCN1c2ccccc2CCc2ccccc21 [Cmpd 523, Imipramine (hydrochloride)] | +++
35 | CC1Cc2ccccc2N1NC(=O)c1ccc(Cl)c(S(N)(=O)=O)c1 (centres unmarked) [Cmpd 527, Indapamide] | +++
36 | O=C1/C(=C2\Nc3ccc(S(=O)(=O)[O-])cc3C2=O)Nc2ccc(S(=O)(=O)[O-])cc21.[Na+].[Na+] [Cmpd 528, Indigo carmine] | ++
37 | NC(=O)c1ccc(I)c([N+](=O)[O-])c1 [Cmpd 531, Iniparib (BSI-201)] | +++++
38 | Clc1ccc(C(Cn2ccnc2)OCc2c(Cl)cccc2Cl)c(Cl)c1 (centres unmarked) [Cmpd 535, Isoconazole nitrate] | +++
39 | CC=Cc1ccc(O)c(OC)c1 [Cmpd 536, Isoeugenol] | ++
40 | O=C(O)c1ccncc1 [Cmpd 537, Isonicotinic acid] | ++++
41 | CC(=O)Nc1ccc(C(=O)O)cc1.CC(=O)Nc1ccc(C(=O)O)cc1.CC(=O)Nc1ccc(C(=O)O)cc1.CC(O)CN(C)C.CC(O)CN(C)C.CC(O)CN(C)C.O=c1[nH]cnc2c1ncn2[C@@H]1O[C@H](CO)[C@@H](O)[C@H]1O [Cmpd 538, Isoprinosine] | ++
42 | CC(C)NCC(O)c1ccc(O)c(O)c1 (centres unmarked) [Cmpd 539, Isoproterenol sulfate dihydrate] | ++

Row | SMILES | Compound Myofibroblast Cytotoxicity Activity
43 | O=[N+]([O-])O[C@@H]1CO[C@H]2[C@@H]1OC[C@@H]2O [Cmpd 540, Isosorbide 5-mononitrate] | ++
44 | CC(COc1ccccc1)NC(C)C(O)c1ccc(O)cc1 (centres unmarked) [Cmpd 542, Isoxsuprine (hydrochloride)] | ++
45 | Cc1ccc(C(=O)N(CCCN)[C@@H](c2nc3cc(Cl)ccc3c(=O)n2Cc2ccccc2)C(C)C)cc1 [Cmpd 543, Ispinesib (SB-715992)] | +++++
46 | COC(=O)C1=C(C)NC(C)=C(C(=O)OC(C)C)C1c1cccc2nonc12 (centres unmarked) [Cmpd 544, Isradipine (Dynacirc)] | ++
47 | C[C@H]1O[C@H](OC2[C@@H](O)[C@@H](O)C(O)[C@H](O)[C@H]2O)[C@@H](N)C[C@@H]1N=C(N)C(=O)O.Cl (some centres unmarked) [Cmpd 548, Kasugamycin (hydrochloride)] | +++
48 | CC(CCc1ccccc1)NCC(O)c1ccc(O)c(C(N)=O)c1 (centres unmarked) [Cmpd 553, Labetalol HCl] | ++
49 | CS(=O)(=O)CCNCc1ccc(-c2ccc3ncnc(Nc4ccc(OCc5cccc(F)c5)c(Cl)c4)c3c2)o1 [Cmpd 558, Lapatinib Ditosylate] | +++
50 | CCN(C(=O)c1c(O)c2c(Cl)cccc2n(C)c1=O)c1ccccc1 [Cmpd 559, Laquinimod (ABR-215062)] | ++++
51 | N=C(N)NCCC[C@H](N)C(=O)O [Cmpd 561, L-Arginine] | ++
52 | O=C1O[C@H]([C@@H](O)CO)C(O)=C1O [Cmpd 562, L-Ascorbic Acid (Vitamin C)] | +
53 | CCCCCCCCCCCC(=O)O [Cmpd 564, Lauric Acid] | ++
54 | CCCCCCCCCCCCN1CCCCCC1=O [Cmpd 565, Laurocapram] | +++++
55 | Cc1c(C(=O)Nc2ccc(N3C[C@@H](C)O[C@@H](C)C3)nc2)cccc1-c1ccc(OC(F)(F)F)cc1.O=P(O)(O)O.O=P(O)(O)O [Cmpd 572, LDE225 Diphosphate] | ++
56 | Cl.c1ccc2c(-c3cnn4cc(-c5ccc(N6CCNCC6)cc5)cnc34)ccnc2c1 [Cmpd 574, LDN193189 Hydrochloride] | +++++
57 | c1cc(-c2cnn3cc(-c4ccc(N5CCNCC5)cc4)cnc23)c2cccnc2c1 [Cmpd 575, LDN-212854] | ++++
58 | Nc1cccc2c1CN(C1CCC(=O)NC1=O)C2=O (centres unmarked) [Cmpd 578, Lenalidomide (CC-5013)] | ++
59 | CCOC(=O)C1=C(COCCN)NC(C)=C(C(=O)OC)[C@@H]1c1ccccc1Cl [Cmpd 580, Levamlodipine] | +++++
60 | CC(=O)CCC(=O)O [Cmpd 583, Levulinic acid] | ++
61 | N[C@@H](CCC(=O)O)C(=O)[O-].[Na+] [Cmpd 584, L-Glutamic acid monosodium salt] | ++
62 | N[C@@H](CCC(=O)N[C@@H](CS)C(=O)NCC(=O)O)C(=O)O [Cmpd 585, L-Glutathione Reduced] | ++++
